# Measured values: PubChem BioAssay AID1963853 (Molecular Pharmacology Branch, DTP, NCI, 2024)
# Several values for one entry are separate records, joined by “and”; a condition that tells them apart may be missing. Equal entries are not always repeated.
# System: 266295-075-R-J1-PDC spheroid viability
# Experiment: Anticancer human tumor 266295-075-R-J1-PDC patient-derived head and neck squamous carcinoma cell line growth inhibition [POLQ]
# Details: spheroids with HUVEC and MSC; for viability, T/C: stronger effect = lower value; for IC50: curve of compound
# Experimental: Multicellular complex tumor spheroid response to Polymerase (POL) inhibitors (novobiocin, ART-558, RP6685) in combination with a variety of drugs and investigational agents in selected tumor cell lines
# The POL inhibitors (novobiocin, ART-558, and RP6685) were evaluated both individually and in combination with standard of care and investigational anticancer small molecules within a complex spheroid model of solid tumors. . Complex spheroids include a stromal component modeled by human endothelial cells (HUVEC) and fibroblasts modeled by human mesenchymal stem cells (MSCs). The concentration ranges selected for each drug and investigational agent were based upon clinically achievable concentrations if the clinical Cmax of the agent was known.
# Compounds. The drugs and investigational agents: novobiocin (NSC847541), ART-558 (NSC835418), RP-6685 (NSC848927), peposertib (NSC802822), ceralasertib (NSC780249), elimusertib (NSC800525), camonsertib (NSC841442), AZD-1390 (NSC803789), olaparib (NSC753686), talazoparib (NSC767125), rucaparib (NSC756644), sotorasib (NSC818433), MRTX-1133 (NSC836407), SN-38 (NSC673596), topotecan (NSC609699), epotoside (NSC141540), doxorubicin (NSC123127), gemcitabine (NSC613327), 5-fluorouracil (NSC19893), paclitaxel (NSC125973), vemurafenib (NSC761431), MSA-2 (NSC828583), SN-011 (NSC837082), adavosertib (NSC754352), prexasertib (NSC758257), carboplatin (NSC241240) and oxaliplatin (NSC266046), were obtained from the National Cancer Institute (NCI) Developmental Therapeutics Program Chemical Repository (21). The FDA-approved anticancer drug set is available from the Developmental Therapeutics Program at https://dtp.cancer.gov/organization/dscb/obtaining/. […] The stock solutions were prepared in dimethyl sulfoxide (DMSO, Sigma-Aldrich, St. Louis, MO, cat. D2650), except for the platinum compounds which were prepared in saline (Quality Biological, Gaithersburg, MD, cat. 114-055-101), at 800-fold the tested concentration and stored at -70 degrees C prior to their use. All drugs and investigational agents were tested over a range starting from a high concentration at or near the clinical Cmax and decreasing in half-log increments. If the clinical Cmax for an agent had not been determined, the highest concentration tested was 10 microM, except for SN-38, which was tested at a high concentration of 1 microM.
# Cell Culture. All cells were maintained in an incubator at 37 degrees C and 5% CO2 with 95% humidity. The PDC lines were cultured according to standard operating procedures established by the NCI PDMR (https://pdmr.cancer.gov). Table 3 of the manuscript, lists the cell lines along with the number of the three cell types plated to form the mct-spheroids and media for tumor cell growth. After thawing, all PDC lines, except 997537-175-T-J1-PDC and 415267-285-R-J2-PDC, were cultured in Matrigel-coated flasks prepared with a working solution of 1X Ham's F-12 nutrient mix, without supplementation (Thermo Fisher Scientific, cat. 11765054), 100 U/mL penicillin-streptomycin (Thermo Fisher Scientific, cat. 15140122), and 2.5% Matrigel (Corning Inc., Corning, NY, cat. 354248) for the first three passages. The two PDC lines 997537-175-T-J1-PDC and 415267-285-R-J2-PDC were cultured on uncoated flasks. The 857933-349-R-J2-PDC line was cultured in 6C/Colon 1B media containing advanced DMEM/F-12 (Thermo Fisher Scientific, cat. 12634028), 10 mM HEPES (Thermo Fisher Scientific, cat. 15630080), 1X GlutaMAX supplement (Thermo Fisher Scientific, cat. 35050061), 0.1 mg/mL primocin (InvivoGen, San Diego, CA, cat. ant-pm-2), 10% defined fetal bovine serum, heat inactivated (HyClone Laboratories Inc., Logan, UT, cat. SH30070.03HI), 50% L-WRN conditioned media (ATCC, cat. CRL-3276), 1.25 mM N-Acetyl-L-cysteine (Sigma-Aldrich, cat. A9165), 10 mM nicotinamide (Sigma-Aldrich, cat. N0636), 1X B-27 supplement (Thermo Fisher Scientific, cat. 17504044), 1X N-2 supplement (Thermo Fisher Scientific, cat. […]
# 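Note: spheroids exposed to compounds for seven days before readout.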
SMILES,"viability, T/C (compound 0.0316 µM)","viability, T/C (compound 0.1 µM)","viability, T/C (compound 0.316 µM)","viability, T/C (compound 1 µM)","viability, T/C (compound 3.16 µM)","viability, T/C (compound 10 µM)",IC50,"viability, T/C (compound 0.000316 µM)","viability, T/C (compound 0.001 µM)","viability, T/C (compound 0.00316 µM)","viability, T/C (compound 0.01 µM)"
O=c1[nH]cc(F)c(=O)[nH]1,98.7% and 96% and 115%,89.9% and 91.2% and 95.8%,86.7% and 97.9% and 89.4%,89.8% and 116% and 102%,80.7% and 102% and 94.3%,89.4% and 89% and 84.3%,> 10 µM,,,,
CC1COCCN1c1cc(C2(S(C)(=N)=O)CC2)nc(-c2ccnc3[nH]ccc23)n1 (stereo unspecified),92.3% and 97.5% and 86.5%,95.2% and 93.2% and 93.5%,89.9% and 85.6% and 97.6%,83.2% and 80% and 78.7%,73.2% and 87.5% and 76.5%,55.6% and 56% and 54.7%,> 10 µM,,,,
Cn1ncnc1[C@H]1c2n[nH]c(=O)c3cc(F)cc(c23)N[C@@H]1c1ccc(F)cc1,104% and 112% and 89%,118% and 101% and 105%,,,,,> 0.1 µM,103% and 112% and 99.9%,100% and 92.9% and 88.8%,87.1% and 103% and 107%,102% (2×) and 92.9%
O=C(c1cc(Cc2n[nH]c(=O)c3ccccc23)ccc1F)N1CCN(C(=O)C2CC2)CC1,114% and 79.6% and 101%,84% and 87.8% and 94.3%,94.3% and 90.3% and 90.9%,91.9% and 99.1% and 99.3%,112% and 105% and 107%,85.3% and 86.9% and 82.6%,> 10 µM,,,,
COc1cccc2c1C(=O)c1c(O)c3c(c(O)c1C2=O)CC(O)(C(=O)CO)CC3OC1CC(N)C(O)C(C)O1 (stereo unspecified),75.4% and 85.8% and 98.2%,77% and 122% and 101%,67.3% and 74% and 72.5%,55.9% and 77.4% and 82.8%,47.4% and 71.8% and 63.5%,1.55% and 2.37% and 2.7%,2 µM and 4.15 µM and 3.85 µM,,,,
CCc1cc2c(N3CCc4c(cc(Cn5ccnc5)cc4-c4cn(C)nc4C(F)(F)F)C3=O)cc(C)nc2c(OC)n1,98.5% and 103% and 90.3%,95.8% and 103% and 98.5%,91.9% and 89.5% and 109%,120% and 97% and 110%,123% and 113% and 127%,128% (2×) and 130%,> 10 µM,,,,
COc1cc(C2c3cc4c(cc3C(OC3OC5COC(C)OC5C(O)C3O)C3COC(=O)C23)OCO4)cc(OC)c1O (stereo unspecified),84.2% and 123% and 88.1%,80.5% and 94.5% and 116%,92.3% and 110% and 112%,77.7% and 88% and 98.4%,79.7% and 84.9% and 93.1%,72.6% and 84.4% and 82.6%,> 10 µM,,,,
COc1ccc([C@@H](O)c2cc(-c3ncnc4cc(N5CCOCC5)ccc34)c(F)cc2Cl)nn1,96.7% and 96.6% and 100%,89.4% and 101% and 98%,84.6% and 83% and 84%,60.7% and 73.9% and 67.8%,44.7% and 71.7% and 51.1%,39.7% and 44.2% and 39.9%,2.17 µM and 8.03 µM and 3.39 µM,,,,
